Measurements taken from EP0840727B1, “3-HYDROXY-2(1H)-[…] AGENTS” (priority 1995, dated 1997).
Marks after values point to notes of the source that are not given here.

How the values were obtained:
[1] = In vivo acute toxicity test of injected ligands in mice
Description: The test of acute toxicity of novel and comparative ligands was carried out as follows. Groups of five mice were each given a single i.p. injection of […] of ligand and a day for 10 days or given two i.p. injections of […] in 8 hours. The ligand was dissolved in 0.5 to 1.0 ml of saline at pH 7 to 8. After a period of observation, the mice were killed; selected tissues were removed and fixed for histopathological examination; and unusual findings at autopsy were recorded. […]

[2] = Promoting excretion of 241Am(III) in mice by injected ligand; assay type: in vivo
Text: Animal studies were completed using methods detailed in Radiation Protection Dosimetry, in press, P. W. Durbin et al., "In Vivo Chelation of Am(III), Pu(IV), Np(V) and U(VI) in Mice by TREN-(Me-3,2-HOPO)"; Radiation Protection Dosimetry, 17, No. 1, 1989, p. 351, P. W. Durbin et al., "Removal of ^238Pu(IV) from Mice by Polycatechoylate, -Hydroxamate or -Hydroxypyridinonate Ligands"; Radiation Research, 99, 1984, p. 85, P. W. Durbin et al., "Specific Sequestering Agents for the Actinides ..."; Radiation Research, 99, 1984, p. 106, P. W. Durbin et al., "Removal of Pu and Am from Beagles and Mice ..."; Radiation Research, 81, 1980, p. 170, R. D. Lloyd et al., and P. W. Durbin et al., "Specific Sequestering Agents for the Actinides ...". The foregoing articles are hereby incorporated by reference.
Radionuclides used in the animal studies came from a variety of sources. However, they can be purchased commercially. The ^238Pu(IV) citrate and ^241Am(III) citrate solutions were prepared for animal injection by 8- to 10-fold dilution with 0.14M NaCl (pH 4) of concentrated stock solutions (0.08M sodium citrate buffer) that had been held in frozen storage at Lawrence Berkeley Laboratory (hereinafter LBL) for several years. [The ^238Pu(IV) was originally obtained from D. R. Atherton at the University of Utah Radiobiology Laboratory, Salt Lake City. The ^241Am(III) solution had been obtained many years earlier from the LBL Actinide Chemistry group.]
One of the comparative chelating agents TREN-Me-3,2-HOPO, was also tested for effectiveness in promoting excretion of ^241Am(III), ^237Np(V), and ^232U(VI) by injection into mice, as follows: Mice, in groups of five, each received an intravenous injection of (a) 1100 Bq of ^241AM(III) in 0.2 mL of citrate buffer, (b) 150 Bq of ^232UO2Cl2 plus 3.6 mg of ^235UO2Cl2 in 0.2 mL of saline, or (c) 200 Bq of ^237NpO2Cl (7.5 mg of ^237NpO2Cl) in 0.2 mL of saline. Three to five minutes later, […] of TREN-Me-3,2-HOPO was injected intraperitoneally in 0.5 mL of saline. The mice were killed 24 hours after the actinide injection, frozen, and dissected after partial thawing. The skeleton, soft tissues, and separated excreta were radioanalyzed by counting the ^241Am gamma rays, or the alpha particles emitted by ^237Np or ^232U (and its ingrowing daughters). Removal of those actinides from mice by injected TREN-Me-3,2-HOPO is summarized in Table 5, which also includes data for mice similarly treated with CaNa3-DTPA and for actinide-injected controls. […] The structure of Am(III)-TREN-Me-3,2-HOPO is considered to resemble that of the Gd(III) complexes (see example 20). Complexation of the fraction of Np(V) that is reduced in vivo to Np(IV) is considered to resemble that of Pu(IV). Complexation of U(VI) is considered to take place through binding to UO2^2+.

[3] = protocol I, 100 µmol kg^-1 x 10 daily i.p., study length 11 d
[4] = protocol I, 100 µmol kg^-1 x 10 daily i.p., study length 21 d
[5] = protocol II, 500 µmol kg^-1 x 2 in 8 h, study length 8 d
[6] = Am(III), ligand 30 mmol.kg-1 i.p at 3 to 5 min after actinide i.v., kill at 24 h
[7] = Am(III), ligand 30 mmol.kg-1 i.p at 3 to 5 min after actinide i.v., kill at 24 h, pooled

## Cn1ccc(C(=O)NCCN(CCNC(=O)c2ccn(C)c(=O)c2O)CCNC(=O)c2ccn(C)c(=O)c2O)c(O)c1=O [TREN-Me-3,2-HOPO, N,N,N,-Tris[(3-hydroxy-1-methyl-2-oxo-1,2-dihydropyridin-4-yl)carboxamidoethyl]-amine]
[1]; even at the relatively high dosage of 2x500 µmol/kg in 8 hours
  toxicity (in words): low toxicity
[1]; [3]
  no. of survivors: 5
  percent control mean + SD: body weight: 102 ± 1 percent control
  percent control mean + SD: plasma urea N: 112 ± 10 percent control
[1]; [4]
  no. of survivors: 5
  percent control mean + SD: body weight: 106 ± 4 percent control
  percent control mean + SD: plasma urea N: 120 ± 9 percent control
[1]; [5]
  no. of survivors: 19
  percent control mean + SD: body weight: 101 ± 4 percent control
  percent control mean + SD: plasma urea N: 119 ± 15 percent control
[2]; 30 µmol/kg intraperitoneally three to five minutes after actinide
  Am content of tissues compared with controls (in words): the Am content of all tissues was greatly reduced
[2]; [6]
  percent of injected actinide ± SD at 24 h, tissues: liver: 1.0 ± 0.6^d,e percent of injected actinide
  percent of injected actinide ± SD at 24 h, tissues: skeleton: 8.1 ± 1.6^d percent of injected actinide
  percent of injected actinide ± SD at 24 h, tissues: soft tissue: 1.6 ± 0.6^d percent of injected actinide
  percent of injected actinide ± SD at 24 h, whole body: 11 ± 1.4^d,e percent of injected actinide
[2]; [7]
  percent of injected actinide at 24 h, excreta: feces and GI contents: 38% of injected actinide
  percent of injected actinide at 24 h, excreta: urine 0-24 h: 51% of injected actinide
  percent of injected actinide at 24 h, tissues: kidneys: 0.2% of injected actinide
